The source of these data is US6667341B2, “Delta dicarbonyl compounds and methods for using the same” (Beacon Laboratories, Inc., priority 2000, dated 2003).

One assay has as its system MCF-7 breast cancer cells. The experiment in a line: Anti-proliferation assay, MCF-7. It counts as cell-based. Conditions: Homo sapiens, MCF7; value marked *: obtained from MCF-7 cell line; read-out: PC-3 or MCF-7* IC50. The protocol: (§1) Compounds prepared according to Examples 1-7 were tested for anti-proliferation against PC-3 prostate or MCF-7 breast cancer cells. The specific compounds tested include N-methyl-2-(2-methoxyethoxy)acetamidomethyl butyrate; N-methylbutyramidomethyl cinnamate; N-methylcinnamamidomethyl butyrate; cinnamoyloxymethyl thiobutyrate; butyroyloxymethyl thiocinnamate; bis(thiobutyl)methane; 3-oxohexyl cinnamate; and propionoyloxymethyl propionate. Butyric acid and trichostatin, a potent HDAC inhibitor, were used as reference compounds. Both compounds were purchased from Sigma-Aldrich, Milwaukee, Wis.
Cell culture plates were then heated to 90° C. to liquefy the agarose, and cells were harvested onto glass fiber filters, which were then placed into counting vials containing liquid scintillation fluid. The radioactivity trapped on the filters was counted with a Beckman scintillation counter. The fraction of surviving cells was determined by comparing ^3H-TdR incorporation in treated (experimental points) and untreated (negative control) wells. All drug concentrations are presented as μM, allowing for normalization of drug response curves and direct comparison of the effects of the drugs. […] IC50 values were determined using the approximated sigmoidal curves and expressed as μM. […]
What is called IC50 is the concentration needed to halve the response being measured. `CCC(=O)OCOC(=S)CC` [propionoyloxymethyl thiopropionate, Propionoyloxymethyl Thiopropionate]: the IC50 was 50 µM.

In a further assay the test system is PC-3 prostate cancer cells. The experiment in a line: EDR anti-proliferation assay (3H-thymidine incorporation, soft agar), PC-3. It counts as cell-based. Conditions: PC-3 cell line; five days incubation; 3H-TdR incorporation; read-out: PC-3 or MCF-7* IC50. Here is the method:
as §1
The PC-3 cell line was maintained in RPMI supplemented with 10% fetal calf serum and antibiotics. The EDR assay was performed as described by Kern and Weisenthal in “Highly Specific Prediction of Antineoplastic Drug Resistance With An In Vitro Assay Using Suprapharmacologic Drug Exposures,” J. Nat. Cancer Inst., 82:582-588 (1990); and Fruehauf and Bosanquet, “In vitro Determination of Drug Response: A Discussion of Clinical Applications,” PPO Updates 7(12):1-16 (1993). Cells were suspended in 0.12% soft agar in complete medium and plated (2,000 cells per well, as determined by preliminary experiments) in different drug concentrations onto a 0.4% agarose underlayer in 24-well plates. Plating cells on agarose underlayers supports the proliferation only of the transformed cells, ensuring that the growth signal stems from the malignant component of the tumor.
All compounds were dissolved in DMSO to 200× stock solutions. Stock solutions were diluted to 20× working solutions using the tissue culture medium, serially diluted and added to the 24-well plates. The concentration range was 0.001 μM to 0.3 μM for trichostatin and 10 μM-1,000 μM for the other compounds. No significant changes in pH of the culture medium were observed under the above conditions. Diluent control wells contained PC3 cells treated with DMSO, at the dilutions used for appropriate drug treatment. All experimental points were represented by two separate wells (duplicates). Positive controls were determined using at least two wells treated with an extremely high dose of cisplatin, an anti-cancer agent. Four wells containing tumor cells that were not treated with drugs served as negative controls in each experiment.
Cells were incubated with drugs under standard culture conditions for five days. Cultures were pulsed with tritiated thymidine (^3H-TdR, New Life Science Products, Boston, Mass.) at 5 μCi per well for the last 48 hours of the culture period.
Cell culture plates were then heated to 90° C. to liquefy the agarose, and cells were harvested onto glass fiber filters, which were then placed into counting vials containing liquid scintillation fluid. The radioactivity trapped on the filters was counted with a Beckman scintillation counter. The fraction of surviving cells was determined by comparing ^3H-TdR incorporation in treated (experimental points) and untreated (negative control) wells. All drug concentrations are presented as μM, allowing for normalization of drug response curves and direct comparison of the effects of the drugs. Microsoft Excel was used to organize the raw data on EDR experiments, and the SigmaPlot program was utilized to generate drug response curves. All drug response curves were as approximated as sigmoidal equations (characteristic for typical drug response curves) to fit the data. IC50 values were determined using the approximated sigmoidal curves and expressed as μM. Table 12 provides the PC-3 or MCF-7 IC50 data for each of the compounds tested.
Background: Dividing cells build labelled thymidine or BrdU into new DNA.
With `CCCC(=O)SCSC(=O)CCC`, the half-inhibitory concentration (IC50) came out at 40 µM.

Consider `CCCC(=O)CCOC(=O)C=Cc1ccccc1` [3-oxohexyl cinnamate, 3-Oxohexyl Cinnamate], for which the IC50 was 40 µM.

For the molecule `CCCC(=O)OCN(C)C(=O)COCCOC` [N-Methyl-2-(2-methoxyethoxy)acetamidomethyl Butyrate], the half-maximal inhibitory concentration (IC50) amounted to 36 µM. Turning to `CCCC(=O)N(C)COC(=O)C=Cc1ccccc1` [N-methylbutyramidomethyl cinnamate, N-Methylbutyramidomethyl Cinnamate], the IC50 is 100 µM. Consider `CCCC(=O)OCN(C)C(=O)C=Cc1ccccc1` [N-methylcinnamamidomethyl butyrate, N-Methylcinnamamidomethyl Butyrate], for which the IC50 is 20 µM. On the same count and under the same terms, next, `CCCC(=O)O` [butyric acid, reference compound]: over 2000 µM. In the case of `CCCC(=O)OCOC(=S)C=Cc1ccccc1` [butyroyloxymethyl thiocinnamate, Butyroyloxymethyl Thiocinnamate], the IC50 was found to be 30 µM. On to `CCCC(=S)OCOC(=O)C=Cc1ccccc1` [cinnamoyloxymethyl thio-butyrate, Cinnamoyloxymethyl Thiobutyrate], for which the IC50 was 30 µM. Still for that read-out and setting: next, `CC(/C=C/C(=O)NO)=C\[C@@H](C)C(=O)c1ccc(N(C)C)cc1` [trichostatin, reference compound]: 0.005 µM.
